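Briefly, cells in 96-well plates were exposed to five compound concentrations for 48 h, and endpoints were estimated by linear interpolation. GI50 is the concentration that inhibits growth by half.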 Activity calls are given as the source filed them. Cut-off read from the data, not from the text of the source: active = GI50 up to about 1.1 µM and inactive = higher.
Tests used:
Assay in all cases: NCI anticancer screen, dose series, 48 h
[1] = system: SR
[2] = system: RXF 393
[3] = system: HCT-15
[4] = system: NCI/ADR-RES
[5] = system: NCI-H23
[6] = system: MDA-MB-231
[7] = system: NCI-H226
[8] = system: A549
[9] = system: SNB-19
[10] = system: UACC-257
[11] = system: NCI-H460
[12] = system: OVCAR-5
[13] = system: HCC 2998
[14] = system: SK-MEL-5
[15] = system: SNB-75
[16] = system: SF-295
[17] = system: KM12
[18] = system: NCI-H522
[19] = system: DU-145
[20] = system: SF-539

| Structure (SMILES) | GI50 [1] | GI50 [2] | GI50 [3] [µM] | GI50 [4] | GI50 [5] | GI50 [6] | GI50 [7] | GI50 [8] | GI50 [9] | GI50 [10] | GI50 [11] | GI50 [12] | GI50 [13] | GI50 [14] | GI50 [15] | GI50 [16] | GI50 [17] | GI50 [18] | GI50 [19] | GI50 [20] |
| --- | --- | --- | --- | --- | --- | --- | --- | --- | --- | --- | --- | --- | --- | --- | --- | --- | --- | --- | --- | --- |
| CCOc1ccccc1Nc1ccc(N)cc1S(=O)(=O)O | > 100 µM (inactive) | > 100 µM (inactive) | > 100 | > 100 µM (inactive) | > 100 µM (inactive) | > 100 µM (inactive) | > 100 µM (inactive) | > 100 µM (inactive) | > 100 µM (inactive) | > 100 µM (inactive) | > 100 µM (inactive) | > 100 µM (inactive) | > 100 µM (inactive) | > 100 µM (inactive) | > 100 µM (inactive) | > 100 µM (inactive) | > 100 µM (inactive) | > 100 µM (inactive) | > 100 µM (inactive) |  |
| N#CS/C(Cl)=C(/C(Cl)=C(Cl)Cl)[N+](=O)[O-] | 24.7 µM (inactive) | 47.3 µM (inactive) | 20.9 | 28.4 µM (inactive) | 33.3 µM (inactive) | 52.5 µM (inactive) | > 100 µM (inactive) | > 100 µM (inactive) | 1.89 µM (inactive) | 36.6 µM (inactive) | 42.8 µM (inactive) | > 100 µM (inactive) | 39.8 µM (inactive) | 49.7 µM (inactive) | 32.3 µM (inactive) | 53.2 µM (inactive) | 47.6 µM (inactive) |  | > 100 µM (inactive) | 32.9 µM (inactive) |
| COC(=O)C1=NN2c3ccccc3CN([C@@H](C)c3ccccc3)C(=O)[C@@H]2C1 | 22 µM (inactive) | 46.6 µM (inactive) | 31.7 | 21 µM (inactive) | 32.9 µM (inactive) | 57 µM (inactive) | 54.1 µM (inactive) | 31.4 µM (inactive) | 39.6 µM (inactive) | 30.5 µM (inactive) | 58.3 µM (inactive) | 52.1 µM (inactive) | 48.2 µM (inactive) | 18.7 µM (inactive) |  | 40.2 µM (inactive) | 21.2 µM (inactive) | 21.7 µM (inactive) | 30.8 µM (inactive) | 50.7 µM (inactive) |
| CC(C)CCNC(=O)c1ccc(CNC(=O)/C=C/c2ccc3ccccc3c2)cc1 | > 100 µM (inactive) | > 100 µM (inactive) | > 100 | > 100 µM (inactive) | > 100 µM (inactive) | > 100 µM (inactive) | > 100 µM (inactive) | > 100 µM (inactive) | > 100 µM (inactive) | > 100 µM (inactive) | > 100 µM (inactive) | > 100 µM (inactive) | > 100 µM (inactive) | > 100 µM (inactive) | > 100 µM (inactive) | > 100 µM (inactive) | > 100 µM (inactive) |  | > 100 µM (inactive) |  |
| COc1cc(C2c3cc4c(cc3OC(NN=C(C)C)C2C)OCO4)cc(OC)c1O (stereo not drawn) | 1.44 µM (inactive) | 24.7 µM (inactive) | 7.43 | 18 µM (inactive) | 26.7 µM (inactive) | 27.9 µM (inactive) | > 100 µM (inactive) | 22.9 µM (inactive) | 85.5 µM (inactive) | 89.3 µM (inactive) |  | 64.4 µM (inactive) | 14.4 µM (inactive) | 10.8 µM (inactive) | 3.66 µM (inactive) | 18.9 µM (inactive) | 21.2 µM (inactive) | 3.94 µM (inactive) | 24.1 µM (inactive) | 21.2 µM (inactive) |
| C=C1C(=O)O[C@@H]2C=C(C)C3=CC(=O)[C@](C)(C[C@H](OC(=O)/C(C)=C\C)[C@@H]12)O3 | 0.201 µM (active) | 0.29 µM (active) | 0.328 | 0.67 µM (active) | 1.22 µM (inactive) | 0.759 µM (active) | 2.28 µM (inactive) | 1.73 µM (inactive) |  | 2.14 µM (inactive) | 2.18 µM (inactive) | 1.97 µM (inactive) | 1.51 µM (inactive) | 0.542 µM (active) | 13.5 µM (inactive) | 2.42 µM (inactive) | 1.3 µM (inactive) | 0.144 µM (active) | 4.1 µM (inactive) | 2.43 µM (inactive) |
| Oc1c(C2=N[C@H]3CCCC[C@@H]3N2)ccc2ccccc12 | > 100 µM (inactive) |  | > 100 | > 47.6 µM (inactive) | > 100 µM (inactive) | > 100 µM (inactive) | > 100 µM (inactive) |  | > 40.8 µM (inactive) | > 100 µM (inactive) | > 100 µM (inactive) | > 100 µM (inactive) | > 100 µM (inactive) | > 100 µM (inactive) | > 69.2 µM (inactive) |  | > 100 µM (inactive) | > 100 µM (inactive) | > 100 µM (inactive) | > 59.6 µM (inactive) |
| O=C(CC(C(=O)c1ccsc1)c1ccccc1)c1cccs1 (stereo not drawn) | 57.4 µM (inactive) | 59.3 µM (inactive) | 56.9 | 22.5 µM (inactive) | 22 µM (inactive) | 22.2 µM (inactive) | > 100 µM (inactive) |  |  | 61 µM (inactive) | 27.1 µM (inactive) | > 100 µM (inactive) | 85.3 µM (inactive) | 43.2 µM (inactive) | 72.6 µM (inactive) | 33.3 µM (inactive) | 26.8 µM (inactive) | 41.6 µM (inactive) | > 100 µM (inactive) | > 100 µM (inactive) |
| O=C1C=C2CCC[C@H]3OC(=O)C[C@@]23CC1 | > 100 µM (inactive) | > 100 µM (inactive) | > 100 | > 100 µM (inactive) | > 100 µM (inactive) | > 100 µM (inactive) | > 100 µM (inactive) | > 100 µM (inactive) | > 100 µM (inactive) | > 100 µM (inactive) | > 100 µM (inactive) | > 100 µM (inactive) | > 100 µM (inactive) | > 100 µM (inactive) |  | > 100 µM (inactive) | > 100 µM (inactive) | > 100 µM (inactive) | > 100 µM (inactive) | > 100 µM (inactive) |
| Cn1cnc(N2CCCC2)c(C#N)c1=O | > 100 µM (inactive) | > 100 µM (inactive) | > 100 | > 100 µM (inactive) | > 100 µM (inactive) | > 100 µM (inactive) | > 100 µM (inactive) | > 100 µM (inactive) | > 100 µM (inactive) | > 100 µM (inactive) | > 100 µM (inactive) | > 100 µM (inactive) | > 100 µM (inactive) | > 100 µM (inactive) |  | > 100 µM (inactive) | > 100 µM (inactive) | > 100 µM (inactive) | > 100 µM (inactive) | > 100 µM (inactive) |
| O=C1c2ccccc2C(=O)c2c(NCCNC(=O)C3CCCN3)ccc(NCCNC(=O)C3CCCN3)c21 (stereo not drawn) | 22 µM (inactive) |  | > 100 | > 100 µM (inactive) | 52.8 µM (inactive) | 23.7 µM (inactive) | > 100 µM (inactive) | > 100 µM (inactive) | 44.1 µM (inactive) | > 100 µM (inactive) |  | 51.4 µM (inactive) | 35.9 µM (inactive) | 88.5 µM (inactive) | 53.3 µM (inactive) | > 100 µM (inactive) | 23.2 µM (inactive) | 19.9 µM (inactive) | 70.1 µM (inactive) | 44.6 µM (inactive) |
| CCOC(=O)N1CCN(c2c(C)nc(C)nc2O)CC1 | > 100 µM (inactive) | > 100 µM (inactive) | > 100 | > 100 µM (inactive) | > 100 µM (inactive) | > 100 µM (inactive) | > 100 µM (inactive) | > 100 µM (inactive) | > 100 µM (inactive) | > 100 µM (inactive) | > 100 µM (inactive) |  | > 100 µM (inactive) | > 100 µM (inactive) |  | > 100 µM (inactive) | > 100 µM (inactive) | > 100 µM (inactive) | > 100 µM (inactive) | > 100 µM (inactive) |
| COc1cccc(/N=N/C(=N/NC(=O)c2ccc(C)cc2)c2ccc(N(CCC#N)CCC#N)cc2OC)c1 | > 100 µM (inactive) | > 100 µM (inactive) | > 100 | > 100 µM (inactive) | > 100 µM (inactive) | > 100 µM (inactive) | > 100 µM (inactive) | > 100 µM (inactive) | > 100 µM (inactive) | 7.14 µM (inactive) | 3.76 µM (inactive) | 24.4 µM (inactive) | 8.28 µM (inactive) | > 100 µM (inactive) |  | 59 µM (inactive) | > 100 µM (inactive) | > 100 µM (inactive) | > 100 µM (inactive) |  |
| O=C(O)C1OC1C(=O)O (stereo not drawn) | > 100 µM (inactive) | > 100 µM (inactive) | > 100 | > 100 µM (inactive) | > 100 µM (inactive) | > 100 µM (inactive) | > 100 µM (inactive) | > 100 µM (inactive) | > 100 µM (inactive) | > 100 µM (inactive) | > 100 µM (inactive) | > 100 µM (inactive) | > 100 µM (inactive) | > 100 µM (inactive) | > 100 µM (inactive) | > 100 µM (inactive) | > 100 µM (inactive) | > 100 µM (inactive) | > 100 µM (inactive) |  |
| Cc1ccsc1/C(S)=N\c1ccc(Cl)c(/C=N/OC(C)(C)C)c1 | 19.9 µM (inactive) | 14.8 µM (inactive) | 31.2 | 23.6 µM (inactive) | 24.7 µM (inactive) | 21.2 µM (inactive) | 24.7 µM (inactive) | 30.9 µM (inactive) | > 100 µM (inactive) | 17.2 µM (inactive) | 20.3 µM (inactive) | > 100 µM (inactive) | 18.5 µM (inactive) | 31.5 µM (inactive) |  | 28.1 µM (inactive) | 25.1 µM (inactive) | 24 µM (inactive) | 25.5 µM (inactive) | 50.5 µM (inactive) |

From ChEMBL document CHEMBL1201862, “PubChem BioAssay data set” (2004)
